# According to patent US20190231847A1, “TREATMENT OF OCULAR DISEASE” (priority 2016, published 2019):
# Where two headings read alike, the source gives them in different places.
# Assays:
# [1] = tested on: cell infiltrate, corneal swelling and blood vessels; assay: H&E staining of sutured rat corneas, Example 4; format: in vivo
# Procedure: (§1) Approximately 24 hours after the last treatment the eyes were imaged and clinically scored. The sutured eyes were scored based on vessel density, vessels distance to suture and inflammation. Vessel density was scored out of three, 0=no density, 1=mild, 2=moderate, 3=high. Vessels distance to suture was scored out of four, 0=no reach, 1=small distance, 2=moderate distance, 3=¾ of the way, 4=reached sutures and inflammation was scored out of three, 0=none, 1=minimal, 2=moderate, 3=severe. After clinical scoring the eyes were enucleated, tissue processed, wax embedded and cut into 5 μm sections while taking care to find the sutured area. Sections were stained with haematoxylin and eosin (H&E) to confirm suture location in each eye and adjacent slides were then used for immunohistochemistry to identify CD44+ cells and FKBPL expression as well NFκB and p-IκBα.
# (§2) Sections (5 μm) were stained with haematoxylin and eosin (H&E) to confirm suture location in each eye. Adjacent slides were then used for immunohistochemistry to identify, CD44+ cells and FKBPL expression.
# FKBPL = assay: Immunohistochemistry of FKBPL in rat cornea; format: in vivo; conditions: 1 μM ALM201
# Procedure: as §1, §2
# CD44 = assay: Immunohistochemistry staining for CD44 in rat cornea; format: in vivo; conditions: sutured corneas, 1 μM ALM201
# Procedure: as §1, §2
# [2] = tested on: infiltrated cells and CD68+ cells in sutured cornea; assay: Histological analysis (H&E, CD68+) of sutured rat eyes, Example 3; format: in vivo; conditions: topical ALM201, day 6 after suture and treatment
# Procedure: FIG. 11 Histological analysis by haematoxylin and eosin (H&E) staining showing increased infiltration of cells in control samples (PBS or dexamethasone) compared to treated samples (ALM201, 1 μM or 100 μM) at day 6 after suture and treatment. (A) Haematoxylin and eosin stained sections for each of the experimental groups. White arrows indicate sutures and black arrows show blood vessels (scale bar=500 μm). […] (B) The number of total infiltrated cells and (C) number of CD68+ infiltrated cells in each experimental group was quantitated, with higher numbers of infiltrated cells present in the control group compared to the peptide treated group.
# On day 0, sutures where placed into the cornea of rats to induce corneal neovascularisation and inflammation. The eyes were treated for 3 days or 6 days with 16 μl of ALM201 (100 nM and 100 μM) or PBS (vehicle control).
# Eyes were enucleated on the 3rd or 6th day one hour after treatment and frozen in gelatine.
# Cross sections (10 μm) were taken at the centre of the eye for MSI, adjacent sections were stained with haematoxylin and eosin (H&E).
# [3] = tested on: neovascularisation induced by sutures in the cornea; assay: Rat corneal suture model, Example 1 (blinded grading at day 6, images); format: in vivo
# Procedure: To assess the action of ALM201 (SEQ ID NO:3) on the ocular surface, the ability to halt vessel growth was measured. Vessel growth was stimulated through a well-accepted model (Shi et al., 2011) whereby a suture was placed in the central cornea of rat eyes (FIG. 1). We have shown the rat eye is similar anatomically to the human eye (Moore J E, McMullen C B, Mahon G and Adamis A P. The corneal epithelial stem cell. DNA Cell Biol. 2002; 21(5-6):443-51; incorporated herein by reference).
# The experimental groups were: • Subconjunctival injection of peptide (5 rats), control group (5 rats) and positive control group (5 rats) • Intrastromal injection of peptide (5 rats), control group (5 rats) and positive control group (5 rats) • Topical application of peptide (5 rats), control group (5 rats) and positive control group (5 rats)
# A suture was placed in the central cornea of one eye of each animal while the control eye remained untouched. For the injection groups, peptide was added to the rat's eyes at day 0, day 3, and day 6. For the topical application group, peptide and the positive control was added daily. Each day after suture, rats were monitored for vessel growth and photographed using a Hawk Eye Portable Digital Slit Lamp (Dioptrix, France) and inverted microscope (Nikon's E600FN; Surrey, UK). At a time point when a difference is noted (e.g. day 6) between untreated and peptide treated animals, they received 8 μg/g tail vein injections of an endothelial-specific fluorescein-conjugated lectin (Lycopersicon esculentum; Vector Laboratories, Burlingame, Calif.). Thirty minutes later, the eyes were harvested and fixed with 10% neutral buffered formalin for 24 hours. The corneas were isolated and flat-mounted on glass slides. The fluorescence in the perfused vessels was captured using a Leica SP5 multiphoton microscope (Milton Keynes, UK). Vessel formation within tagged information file format (.tiff) files was measured by visualization with Image J (Rasband, 1997-2014).
# At day 6 all rats were graded by an opthalmologist blinded to the treatment. Grading scales were as follows:
# Vessel distance from suture: 0=no reach; 1=small distance; 2=moderate distance; 3=¾ of the way; 4=reached sutures;
# Vessel density grading: 0=no density; 1=mild; 2=moderate; 3=high Inflammation grading: 0=none; 1=minimal; 2=moderate; 3=severe;
# [4] = mouse, in vivo, ip, 0.3 mg/kg
# Text: (§4) Bodyweight (BW) of each mouse was monitored daily during the course of treatment.
# NFκB = assay: Immunohistochemical analysis of free NFκB expression in rat cornea; format: in vivo; conditions: 1 μM ALM201
# Procedure: as §1
# (§3) NFκB and phosphorylated-IκBα antibodies were also used in this experiment to see if ALM201 affected the NFκB pathway. Nuclear factor kappa-light-chain-enhancer of B cells or NFκB is a transcription factor which is involved in several processes including inflammation, B cell development, apoptosis, immune regulation and cell proliferation. There are 5 different NFκB heterodimers in the NFκB family, depending on which heterodimer is activated they can activate or repress the transcription of the above process. […]
# p-IκBα = assay: Immunohistochemistry of p-IκBα expression in rat cornea; format: in vivo; conditions: 1 μM ALM201
# Procedure: as §1, §3
# [5] = tested on: neovascularisation and inflammation in the injured cornea; assay: ALM201 concentration titration in rat corneal suture model, clinical scoring, Example 4; format: in vivo; conditions: for Vessel density, clinical score compared to PBS control group / Inflammation scoring in comparison to PBS treated group: scored day 7
# Procedure: Each rat was anesthetised and two 10-0 sutures were placed intrastromally into the temporal cornea of the left eye, 1.5 mm from the limbus. The sutures were left in place for the entirety of the experiment. The right eye was kept as a no suture control but given the same treatment as the left eye. Treatment began approx. 24 hours after suture placement and continued once a day for 6 days.
# as §1
# retinal inflammation [6] = assay: Mouse experimental autoimmune uveitis (EAU) model, clinical score from fundus images (TEFI); conditions: for Difference between day 14 p.i. and day 24 p.i. (clinical score): paired Student's t test
# Procedure: The effect of ALM201 on autoimmune uveitis was tested in a mouse model of experimental autoimmune uveitis (EAU).
# All mice were maintained in a normal experimental room and exposed to a 12-hour-dark-12-hour light cycle.
# An additional 1 mg Bordetella pertussis toxin (Tocris Bioscience, Bristol, UK) was administered intraperitoneally immediately after peptide injection.
# Mouse pupils were dilated with 1% atropine sulphate and 2.5% phenylephrine hydrochloride (Chauvin, Essex, UK). The animals were anaesthetised by isofluorane. […] Clinical score of retinal inflammation was accessed using the criteria described previously by us (Xu et al. 2008a).
# Ten mice were assigned into each group.
# All animals were treated for 10 days from day 14 to 24 p.i.
# Group 2: ALM201 0.3 mg/kg in 100 ml, i.p. injection, once daily.
# Group 3: ALM201 3 mg/kg in 100 ml, i.p. injection, once daily.
# Group 4: Dexamethasone 0.5 mg/kg in 100 ml, p.o. (gavage), once daily.
# Group 5: ALM201 0.3 mg/kg in 100 ml, i.p. injection+Dexamethasone 0.5 mg/kg in 100 ml, p.o. (gavage) once daily.
# Data (Clinical score and histological score) was expressed as mean±SD. One way ANOVA followed by the Tukey's Multiple Comparison Test was used to detect difference between all treatment groups. In addition, Mann-Whitney U test (two tails) was used to detect the difference between ALM201 or dexamethasone treated group and PBS control group. Paired Student's t test was used to compare clinical score before and after treatment.
# retinal inflammation [7] = assay: Mouse EAU model, histopathology (H&E) and histological score; format: in vivo, C57BL/6J mice
# Text: On day 24 p.i., fundus images were taken from all experimental mice using the TEFI system. Mice were then sacrificed by CO2 inhalation and eyes were carefully removed. All eyes were fixed in 2.5% (w/v) glutaraldehyde (Agar Scientific Ltd, Cambridge, UK) for 2 days at room temperature. Eyes were embedded in paraffin for standard H&E staining. Histological scores of retinal inflammation were graded using a standard scoring system described previously (Dick A. D., Cheng Y. F., Liversidge J., Forrester J. V., 1994. Immunomodulation of experimental autoimmune uveoretinitis: a model of tolerance induction with retinal antigens. Eye 8 (Pt 1), 52-59, incorporated herein by reference). Retinal sections from at least three different layers from each eye were used for histopathological analysis. The average score from three layers was used as the final pathological score of the eye.
# [8] = Bodyweight of EAU mice during the course of treatment; conditions: Dexamethasone 0.5 mg/kg p.o.; ALM201 0.3 mg/kg i.p.+Dexamethasone 0.5 mg/kg p.o.
# Text: as §4
# [9] = subconjunctival injection, 100 nM ALM201, Triamcinolone positive control
# [10] = once a day for 6 days, ALM201 100 μM
# [11] = ALM201 0.3 mg/kg i.p. once daily day 14-24 p.i., 10 mice
# [12] = ALM201 3 mg/kg i.p. once daily day 14-24 p.i., 10 mice
# [13] = ALM201 0.3 mg/kg, after 10 days therapy
# [14] = Dexamethasone 0.5 mg/kg p.o. once daily day 14-24 p.i., 10 mice
compound,measurement,setting,value
IRQQPRDPPTETLELEVSPDPAS (listed as Homo Sapiens) [ALM201],"Cell infiltrate, corneal swelling and blood vessels (H&E)",[1]; ALM201 0.01 μM to 10 μM,decreased as the ALM201 concentration was increased
same,Corneal swelling (H&E),[1]; ALM201 100 μM,more corneal swelling was observed
same,FKBPL expression in the corneal epithelium and stroma in comparison with PBS treated sutured corneas and normal corneas,FKBPL,increased
same,CD44 expression compared to sutured PBS control,CD44,decrease in CD44 expression
same,CD68+ cell infiltrates compared to PBS-treated and dexamethasone-treated animals,[2],reduced
same,Neovascularisation in histological analysis compared to controls,[2],decreased neovascularisation
same,Total cell infiltrates compared to PBS-treated and dexamethasone-treated animals,[2],reduced total cell infiltrates
same,Suture-induced neovascularisation in images,"[3]; Hooded Lister Rats, 100 nM ALM201, dexamethasone, vs PBS control",absence of neovascularisation
same,Growth of new blood vessels after corneal damage,[3]; after subconjunctival injection or topical application,prevented growth of new blood vessels
same,Vessel distance from suture compared to PBS control,"[3]; subconjunctival injection day 0, 3, 6, 100 nM ALM201, graded day 6",significant difference of p<0.01
same,Vasculature in images (neovascularisation induced by sutures),[3]; [9],normal vasculature
same,Vasculature in images (neovascularisation induced by sutures),"[3]; topical treatment, daily",normal vasculature
same,Vessel density compared to PBS control,"[3]; topical treatment, daily",significantly different
same,Anti-inflammatory activity,[3]; when injected,had anti-inflammatory activity when injected
same,Bodyweight during the 10-day treatment period,[4],stable BW
same,NFκB expression compared to PBS control sutured corneas,NFκB; sutured corneas,reduction in NFκB expression in the stroma
same,Pattern of NFκB expression,NFκB; unsutured corneas,no effect
same,p-IκBα expression compared to PBS treated sutured corneas,p-IκBα; sutured corneas,reduced
same,p-IκBα expression,p-IκBα; unsutured corneas,no expression of p-IκBα
same,Inflammation and vessel density scores compared with dexamethasone,[5]; ALM201 100 μM,significant difference in scores
same,"Vessel density, clinical score compared to PBS control group","[5]; once a day for 6 days, ALM201 1 μM, dexamethasone positive control",significant decrease
same,"Vessel density, clinical score compared to PBS control group","[5]; once a day for 6 days, ALM201 10 μM",significant decrease
same,Inflammation scoring in comparison to PBS treated group,"[5]; once a day for 6 days, ALM201 10 μM, dexamethasone positive control",significant difference
same,Inflammation scoring in comparison to PBS treated group,[5]; [10],significant difference
same,"Vessel density, clinical score compared to PBS control group",[5]; [10],significant decrease
same,"Vessel distance to sutures, clinical score compared to PBS vehicle control","[5]; once a day for 6 days, scored day 7 after suture, ALM201 1 μM, dexamethasone positive control",significantly different
same,Most effective concentrations in preventing angiogenesis and inflammation,[5]; titration 0.01 μM to 100 μM,1 µM and 10 µM
same,Mice in which progression was prevented or inflammation reduced,retinal inflammation [6]; ALM201 0.3 mg/kg,20%
same,Mice with decreased level of EAU progression,retinal inflammation [6]; ALM201 0.3 mg/kg,80%
same,No. of mice with decreased score (%),retinal inflammation [6]; [11],(10%)
same,No. of mice with increased score,retinal inflammation [6]; [11],8
same,No. of mice with increased score (%),retinal inflammation [6]; [11],(80%)
same,No. of mice with no change (%),retinal inflammation [6]; [11],(10%)
same,Difference between day 14 p.i. and day 24 p.i. (clinical score),"retinal inflammation [6]; ALM201 0.3 mg/kg i.p., 0.3 mg/kg",did not significant change and No
same,Retinal infiltrates in fundus images compared to PBS treated EAU mice,"retinal inflammation [6]; ALM201 0.3 mg/kg, day 24 p.i.",the number of infiltrates was fewer
same,"Average increment in clinical score, day 14 to day 24 p.i.","retinal inflammation [6]; ALM201 0.3 mg/kg, the 8 mice with increased score",0.68
same,No. of mice with decreased score,retinal inflammation [6]; [12],3
same,No. of mice with increased score (%),retinal inflammation [6]; [12],(40%)
same,No. of mice with no change,retinal inflammation [6]; [12],3
same,Difference between day 14 p.i. and day 24 p.i. (clinical score),retinal inflammation [6]; ALM201 3 mg/kg i.p.,No
same,"Average decrement in clinical score, day 14 to day 24 p.i.","retinal inflammation [6]; ALM201 3 mg/kg, the 3 mice with decreased score",0.33
same,"Average increment in clinical score, day 14 to day 24 p.i.","retinal inflammation [6]; ALM201 3 mg/kg, the four mice with increased score",0.82 point
same,Infiltrating cells in retinal histology,retinal inflammation [7]; [13],Fewer infiltrating cells
same,Retinal structure compared to PBS treated mice,retinal inflammation [7]; [13],retinal structure was better preserved
same,Retinal inflammation graded by standard histological scoring system (FIG. 8H),retinal inflammation [7]; ALM201 0.3 and 3 mg/kg,dose-dependently suppressed retinal inflammation
"C[C@@H]1C[C@H]2[C@@H]3CCC4=CC(=O)C=C[C@]4(C)[C@@]3(F)[C@@H](O)C[C@]2(C)[C@@]1(O)C(=O)CO [Dexamethasone, reference compound]",Bodyweight during the 10-day treatment period,[8],stable BW
same,No. of mice with decreased score,retinal inflammation [6]; [14],3
same,No. of mice with increased score,retinal inflammation [6]; [14],3
same,No. of mice with increased score (%),retinal inflammation [6]; [14],(30%)
same,No. of mice with no change,retinal inflammation [6]; [14],4
same,Average increment in EAU score,"retinal inflammation [6]; Dexamethasone 0.5 mg/kg, the 3 mice with increased score",0.80
same,Average reduction in EAU score,"retinal inflammation [6]; Dexamethasone 0.5 mg/kg, the 3 mice with reduced score",0.69
"C[C@]12C=CC(=O)C=C1CC[C@H]1[C@@H]3C[C@@H](O)[C@](O)(C(=O)CO)[C@@]3(C)C[C@H](O)[C@@]12F [Triamcinolone, reference compound]",Vasculature in images (neovascularisation induced by sutures),[3]; [9],normal vasculature
